{"source": "patent US11179450B2", "about": "“Long chain antigen containing interepitope sequence that promotes antigen presentation to T cells” (MIE UNIVERSITY, priority 2013, dated 2021)", "type_in_all_cases": "in vivo, BALB/c mice", "key": {"[1]": {"tested_on": "F4/80+ cells (macrophages)", "experiment": "Uptake of FAM-labeled long chain peptide antigens in individual animals, regional lymph node macrophages", "conditions": "FIG. 9, complexed with CHP, subcutaneous, 16 hours after administration", "description": "The same FAM-labeled long chain peptide antigens as those in FIG. 8 were complexed with CHP and administered subcutaneously to mice. After 16 hours, cells were collected from a regional lymph node of the administration site, and the fluorescence uptakes into dendritic cells and mouse macrophages were measured by flow cytometry with the P4 fraction in the figure being deemed to correspond to the dendritic cells and the P5 fraction in the figure being deemed to correspond to the macrophages.\nA test of uptake of long chain peptide antigens by antigen-presenting cells in individual animals was performed as follows. Each long chain peptide was fluorescence-labeled, complexed with a CHP nanogel, administered subcutaneously to BALB/c mice. 16 hours after administration, cells were collected from lymph nodes and after staining with the anti-CD11c antibody and the anti-F4/80 antibody, the uptake of the fluorescence-labeled long chain peptide antigens by CD11c^+ cells (dendritic cells) and F4/80^+ cells (macrophages) was analyzed by flow cytometry."}, "[2]": {"tested_on": "NY p81 specific CD8+ T cells", "experiment": "Specific CD8+ T cell induction in mice, intracellular cytokine staining (NY p81 epitope)", "conditions": "FIG. 6; comparing one to six tyrosines", "description": "A long chain peptide antigen ESO1 LP (native type) (Sequence No. 16) and a long chain peptide antigen ESO1 LP (Y6) (Sequence No. 17), both containing a mouse CD8+ T cell epitope sequence (NY p81 or NY p82) and a mouse CD4+ T cell epitope sequence (NY p91) that are derived from human NY-ESO-1 antigen, were synthesized. As the interepitope sequence between epitopes, the native amino acid sequence of NY-ESO-1 was retained in the ESO1 LP (native type) and the sequence of six consecutive tyrosines (Y6) was used in the ESO1 LP (Y6). Vaccines containing the respective long chain peptide antigens were administered to mice in the same manner as in FIG. 1 and the frequencies of CD8+ T cells and CD4+ T cells specific to the respective epitope sequences were measured by the intracellular cytokine staining method.\n(§1) Long chain peptide antigens MEN, all containing three types of mouse CD8+ T cell epitope sequences (MA p265 (Sequence No. 27), NY p81 (Sequence No. 29), and mERK2 9m (Sequence No. 28)), were synthesized. The interepitope sequences between the respective epitopes were one to six consecutive tyrosines (Sequence Nos. 1 and 9-12). Vaccines containing the respective long chain peptide antigens were administered to mice in the same manner as in FIG. 1 and the frequencies of CD8+ T cells specific to the respective epitope sequences were measured by the intracellular cytokine staining method.\nas §1, with “five” for “one”, “ten” for “six”, “13-15).” for “9-12).”, “method. […]” for “method.”"}, "[3]": {"tested_on": "MA p265 specific CD8+ T cells", "experiment": "Specific CD8+ T cell induction in mice, intracellular cytokine staining (MA p265 epitope)", "conditions": "FIG. 6; comparing one to six tyrosines", "description": "as §1\nas §1, with “five” for “one”, “ten” for “six”, “13-15).” for “9-12).”\nEach CHP/long chain peptide complex as the vaccine and the CpG oligo DNA as the adjuvant were administered at the same time to a mouse. Administration was performed by subcutaneous injection on the back of the mouse. […]"}}, "data": [{"sequence": "SNPARYEFLYYYYYYQYIHSANVLYYYYYYRGPESRLL (Long chain peptide antigen, containing three types of mouse CD8+ T cell epitope sequences (MA p265, NY p81, and mERK2 9m)) [MEN(Y6)]", "values": [{"measurement": "fluorescence uptake into macrophages of the regional lymph node", "setting": "[1]", "result": "clearly observed"}, {"measurement": "induction of specific CD8+ T cells, NY p81 (third epitope)", "setting": "[2]", "result": "highest"}, {"measurement": "induction of specific CD8+ T cells, MA p265 (first epitope)", "setting": "[3]", "result": "highest"}]}]}
